Peptide text beside a SMILES is read from it.
How the values were obtained:
A375 cells [1] = assay: Annexin V/PI flow cytometry apoptosis, A375; type: cell-based; details: 0, 50, 100, 200 μM, 48 h
Method: In this study, cell apoptosis was analyzed by flow cytometry using a PI/FITC-Annexin V Apoptosis Detection Kit (4A Biotech, Beijing, China). Briefly, melanoma cells were collected and washed with pre-chilled PBS, then resuspended with Annexin V staining buffer. Afterward, fluorescein isothiocyanate (FITC)-Annexin V and PI were stained for 5 min at RT, and then immediately detected using a Beckman flow cytometer. To investigate immune cell infiltration of the lung and spleen in the pulmonary metastasis mouse model, the surface and nuclear antigen staining were performed following the experimental procedure. Fluorescence-labeled mAb against CD3, CD25, CD49b, GranzymeB, CD11b, CD86, and CD206 were purchased from BioLegend (BioLegend, San Diego, CA), and CD4, CD8, and Foxp3 from Tonbo. […] Finally, the samples were measured using flow cytometry.
Fig. 3 Biopanning of PDPN antagonist peptides. […] B Immunofluorescence staining was performed to quantify the colocalization of CY12-RP2 and PDPN protein in melanoma cell lines (A375, A875). […] D Suppression efficiency of melanoma cells growth by CY12-RP2 was measured by CCK8 assay at various concentrations for 24, 48 or 72 h, respectively. […] G, H The 3D cellular spheres were treated with the set concentrations of CY12-RP2 for 5 days and cell morphology was assessed (G), relative spheroid diameter was measured (H). […]

A375 cells [2] = assay: Transwell matrigel invasion, A375; type: cell-based; details: transwell matrigel, 0, 5, 25 μM, 48 h
Method: For invasion assay, matrigel (Corning, New York, USA) was coated on the upper surface of the upper chamber. The upper chamber was filled with DMEM medium containing 2% FBS, while the lower chamber contained a medium supplemented with 20% FBS. In brief, melanoma cells (A375 GFP, A875 GFP, A375 PDPN^−/−, and A875 PDPN^+/+ cells) were seeded in the upper chamber of the transwell plate (Corning, New York, USA) at about 5 × 10^4 cells/well with the medium as described above. For peptide functionality experiments, A375 and A875 cells were seeded in the upper chamber of the transwell plate at a density of 5 × 10^4 cells/well with various peptide concentrations (0 μM, 5 μM, 25 μM). Transwell inserts were fixed using 4% paraformaldehyde after 48 h cell invasion, and crystalline violet was used for staining. The quantities of invading cells were quantified using ImageJ software (NIH).

[3] = system: A375 xenograft tumor cells; assay: TUNEL immunofluorescence of xenograft tumors; type: in vivo, BALB/c nude mice
Method: Fig. S4: The inhibition of cells metastasis and invasion by CY12-RP2 can be […]
(A, B) The inhibition of CY12-RP2 on the migration capacity of melanoma cell lines was reversed by SKL2001 (A). Statistical analysis was performed to determine the migrated distance (B). The power field scale bar, 100 μm. (C, D) Effect of CY12-RP2 on the invasive ability of melanoma cell lines were reversed by SKL2001 (C).
Statistical analysis was performed to count the invaded cells (D). The power field scale bar, 100 μm. (E) Western blot assay was also performed to detect the proteins related to EMT and Wnt/β-catenin signaling pathway, including N-cadherin, Vimentin, snail, Dvl2, Phospho-β-catenin-S675, β-catenin, Phospho-GSK3β-Ser9 and GSK3β by CY12-RP2 with or without SKL2001 (50 μM). Data are presented as mean ± SD. *p < […]
Fig. S5: Effects and toxicity of CY12-RP2 in vivo
(A) TUNEL analysis of apoptosis was conducted on orthotopic xenografts tumor sections using fluorescence staining. The power field scale bar, 100 μm. (B) Fluorescence staining of Ki67 was carried out on orthotopic xenograft tumor sections.
The power field scale bar, 100 μm. (C) Serum His-CY12-RP2 levels of the orthotopic xenografts mice treated by various dosage of CY12-RP2 were measured by His-ELISA kit. […]
kit. (E) Serum ALT, AST, TG, and γ-GT levels of the orthotopic xenografts model were measured by ELISA. […]

[4] = Serum hepatic function index, xenograft nude mice (ELISA); type: in vivo, BALB/c nude mice; details: vs control, 25 and 100 mg/kg
Method: Tumorigenesis assays were conducted in vivo using BALB/c nude mice and BALB/c mice from Guangdong Medical Laboratory Animal Center. The animal study was reviewed and approved by the Administrative Committee on Animal Research of Shenzhen International Graduate School, Tsinghua University (Ethical Development No. 16, 10 November 2021). Samples with 5 × 10^5 A375 or B16F10-Luc melanoma cells were diluted in 100 μL PBS and injected subcutaneously into 6- to 8-week-old female BALB/c nude mice or BALB/c mice. 5 days later, the mice were treated with CY12-RP2 by tail vein administration at various doses (25 mg/kg and 100 mg/kg) every two days. The tumor volume and body weight were measured every 2 days, with the calculation of the tumor volume under the assumption of an ellipsoidal tumor as: tumor volume = length × width^2/2. Tumors from BALB/c nude mice were collected and photographed on day 21, while tumors from the allograft mouse model were measured using bioluminescence imaging. The blood collected from the eyes of BALB/c nude mice were stored at 4 °C for 24 h and then centrifuged for 15 min under the indicated conditions (4 °C, 3000 rpm). The supernatant was collected and assayed for drug toxicity using kits, including AST, ALT, TG, and γ-GT. […]
Fig. S5: Effects and toxicity of CY12-RP2 in vivo […]
(E) Serum ALT, AST, TG, and γ-GT levels of the orthotopic xenografts model were
measured by ELISA. (F) H&E staining of liver, heart, spleen, lung, and kidney treated

## CC(C)C[C@H](NC(=O)[C@H](Cc1ccc(O)cc1)NC(=O)[C@@H](N)[C@@H](C)O)C(=O)N[C@@H](CS)C(=O)N[C@H](C(=O)N[C@@H](C)C(=O)N[C@@H](CS)C(=O)N[C@@H](CC(=O)O)C(=O)N[C@@H](Cc1ccc(O)cc1)C(=O)N[C@H](C(=O)N[C@@H](Cc1c[nH]cn1)C(=O)N[C@@H](Cc1c[nH]cn1)C(=O)O)[C@@H](C)O)[C@@H](C)O [CY12-RP2] (H-TYLCTACDYTHH-OH; N-terminus and C-terminus assumed)
A375 cells [1]
  apoptosis rate: significantly up-regulated by CY12-RP2 in a dose-dependent manner
A375 cells [2]
  invasion: significantly suppressed the invasion of A375 cells in a dose-dependent manner
[3]
  apoptotic tumor cells (TUNEL): more apoptotic tumor cells were detected
[4]
  ALT: not significantly changed
  AST: not significantly changed
  TG: increased
  γ-GT: increased
